These results are taken from article PMC11377810, “A Gaussia luciferase reporter assay for the evaluation of coronavirus Nsp5/3CLpro activity” (Scientific Reports, 2024).

Where only a bound is given, the exact number is not on record here.

The test system of one data set is COVID-19. As to conditions: cited from earlier work.
Data set [1] has as its target T1, SARS-CoV-2 Nsp5 (Severe acute respiratory syndrome coronavirus 2, UniProt P0DTD1).
In data set [2] the target is T1, SARS-CoV-2 Nsp5. The experiment in a line: cell-based.
Data set [3] has as its system HEK293T reporter cells. The experiment in a line: MTT assay of cell metabolic activity of reporter cells. As to conditions: at the active concentrations ≥ 20 µM, Fig. 4c. A general note: Tetrazolium dyes change colour on reduction, which living cells bring about.
The conditions of data set [4]: in vivo, cited from earlier work.
The subject of data set [5] is HEK293T reporter cells.

What is called IC50 is the point on the concentration scale where inhibition reaches its midpoint. Lower therefore signals inhibition by little substance.

On to `Cc1cccc(C)c1OCC(=O)N[C@@H](Cc1ccccc1)[C@@H](O)C[C@H](Cc1ccccc1)NC(=O)[C@H](C(C)C)N1CCCNC1=O` [Lopinavir], for which the “benefit in the treatment of COVID-19” value in the data set with COVID-19 (COVID-19 patients, clinical trials) is “little to no benefit”. Moreover, in the data set with COVID-19 (multiple clinical trials), the “benefit in COVID-19 patients” value is “no significant benefit”. Besides, at SARS-CoV-2 Nsp5 [1], the “concentrations that significantly decreased the Gaussia luciferase signal (lowest significantly active dose)” value is no less than 20 µM; the “effective and non-cytotoxic concentration range” value lay within 8 to 64 µM. In addition, the 50% inhibitory concentration (IC50) against SARS-CoV-2 Nsp5 [2] (IC50, inhibition of Nsp5 reporter (Gaussia luciferase) activity) is 21 µM. Further, the IC50 at SARS-CoV-2 Nsp5 [2] (IC50, inhibition of Nsp5 reporter activity, re-evaluated at lower nontoxic concentrations, additional concentrations, 8–64 µM range (Fig. 4e)) was found to be 12 µM. In addition, the “cytotoxicity (MTT)” value with HEK293T reporter cells [3] is “cytotoxic at all of the tested active concentrations”.

As to `COc1cccc2[nH]c(C(=O)N[C@@H](CC(C)C)C(=O)N[C@@H](C[C@@H]3CCNC3=O)C(=O)COP(=O)(O)O)cc12` [Lufotrelvir], in data set [4] (po), the oral bioavailability entry was “low”. In data set [4], the systemic clearance result is recorded as “fast”.

`COc1cccc2[nH]c(C(=O)N[C@@H](CC(C)C)C(=O)N[C@@H](C[C@@H]3CCNC3=O)C(=O)CO)cc12` [PF-00835231] came in with a non-cytotoxic concentrations in the data set on HEK293T reporter cells [5] of no more than 50 µM.
